{"source": "patent US12258423B2", "about": "“Stapled and stitched polypeptides and uses thereof” (President and Fellows of Harvard College, priority 2013, dated 2025)", "assay": "Circular dichroism (CD) spectroscopy of peptide helicity", "settings": "unlabeled peptide, 10 mM sodium phosphate pH 7.0, FIG. 11D", "protocol": "Circular Dichroism (CD) Spectroscopy: CD spectra (FIGS. 11A-11D) were obtained using unlabeled peptides in 10 mM sodium phosphate pH 7.0 buffer. The raw data has been converted to the concentration-independent unit of molar ellipticity. α-Helices typically show dual minima at approximately 208 nm and 222 nm and a maximum at approximately 192 nm.", "data": [{"smiles": "CC(=O)N[C@H](C(=O)N[C@@H](CO)C(=O)N[C@@H](Cc1ccccc1)C(=O)N[C@]12CCN(C1)C(=O)OCCCCOC(=O)N1CC[C@@](C(N)=O)(C1)NC(=O)[C@H](CC(C)C)NC(=O)[C@H](CC(C)C)NC(=O)[C@H](C)NC(=O)[C@H](Cc1[nH]cc3ccccc13)NC(=O)[C@H](Cc1ccc(O)cc1)NC(=O)[C@H](CCC(=O)O)NC2=O)C(C)O", "note": "(single isomer, unassigned) [Ac-PM2 PyrR/PyrS Alloc-Stapled]", "values": [{"measurement": "α-helical character (CD spectrum)", "result": "a-helical"}]}]}
